Results on two molecules are retold here after paper PMC3274447, “Fermentation, Isolation, Structure, and antidiabetic activity of NFAT-133 produced by Streptomyces strain PM0324667” (AMB Express, 2011).

As usually defined, the AUC(0-t) is exposure summed from dosing to a finite time, without extrapolation to infinity. A higher AUC(0-t) goes with high exposure. In general, Cmax refers to the peak of the concentration-time curve. What is called Tmax is the time at which the peak concentration occurs. A word on the half-life: it is how long it takes for the measured level to halve. Higher therefore signals slow decline. For orientation: EC50 means the concentration giving half of the maximal effect.

Several values for one entry are separate records, joined by “and”; a condition that tells them apart may be missing. Equal values may be shown once. Read-outs that look alike come from different tables or passages of the source.

Data set [1] concerns the target T1, human PPAR-γ (Homo sapiens, UniProt P37231).
T1 construct: expressed in transfected cells; host or cells: CV1 cells, transient transfection with lipofectamine
T1 sequence (P37231 1-505): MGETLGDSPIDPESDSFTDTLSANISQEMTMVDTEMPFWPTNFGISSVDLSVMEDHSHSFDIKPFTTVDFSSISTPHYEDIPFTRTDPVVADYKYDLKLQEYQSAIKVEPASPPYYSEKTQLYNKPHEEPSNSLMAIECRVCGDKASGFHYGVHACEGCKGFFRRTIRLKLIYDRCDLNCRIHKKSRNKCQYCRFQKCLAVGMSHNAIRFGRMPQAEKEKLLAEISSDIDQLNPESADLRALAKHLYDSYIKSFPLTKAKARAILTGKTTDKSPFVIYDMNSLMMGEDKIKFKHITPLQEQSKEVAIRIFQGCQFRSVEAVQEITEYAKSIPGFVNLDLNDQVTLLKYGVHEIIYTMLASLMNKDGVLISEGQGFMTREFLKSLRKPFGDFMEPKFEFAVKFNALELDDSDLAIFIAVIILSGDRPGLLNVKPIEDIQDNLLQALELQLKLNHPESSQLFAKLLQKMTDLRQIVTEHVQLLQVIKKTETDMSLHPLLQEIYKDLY
In words: PPAR-γ luciferase assay in transfected CV1 cells. The format is cell-based. The note with it: for % hPPAR-γ activation: relative to 1 μM rosiglitazone = 100%, n = 3. The procedure: PPAR-γ activation is one of the key mechanisms involved in glucose uptake. […] CV1 cells were seeded onto 24 well plates and transient transfections were conducted after over-night incubation using lipofectamine (Invitrogen, CA, USA). Five hours after transfection, the cells were treated with each compound concentration for an additional 24 h, and the luciferase assay (Promega) was performed according to the manufacture's protocol. Luminescence was measured using the Safire2 reader. […] The entire assay was performed in triplicates.

Data set [2] concerns splenocytes derived from Balb/c and C57BL/6 mice. More on the design: method as in Burres et al.1995. To be noted: splenocytes from Balb/c and C57BL/6 mice in vitro; ref Burres et al.1995; cited from earlier work.
Data set [3] concerns transcription factor - NFAT. More on the design: method as in Burres et al.1995. The note with it: Jurkat T-cells; ref Burres et al.1995; cited from earlier work.
For data set [4], the system named is db/db mice. The data set can be described thus: In vivo activity in male db/db mice, 10 days b.i.d. As for the experimental part:
Male db/db mice (7-9 weeks of age) were housed in individually ventilated cages at room temperature of 22°C ± 2°C, humidity at 55 ± 5%, with a 12:12-h light: dark cycle and throughout the study period had access to water and standard chow ad libitum. The guidelines of the Committee for the Purpose of Control and Supervision of Experiments on Animals, Government of India, were followed and the in-house animal ethics committee approved all experimental procedures.
Male db/db mice were divided into three groups of 10 animals each with similar body weight and plasma glucose (mean ± S.E.M.) levels. […] Body weight was measured daily. On day 10, one hour after the last dose, mice were fasted for four hours so as to minimize the variability between the animals. Blood was collected from the fasted mice, plasma was separated by centrifugation (6000 g at 4°C for 7 minutes) and glucose was estimated using a biochemistry auto analyzer (Hitachi Science Systems Limited, Ibaraki, Japan). A small aliquot of separated plasma was stored at -20°C for estimation of insulin using an ELISA assay kit (Linco Research). Immediately after blood sample collection, mice were sacrificed, livers excised and weighed. The data was reproducible in two independent experiments.
All the results are expressed as Mean ± S.E.M. Statistical analysis was done using GraphPad Prism 4 (version 4.03, GraphPad Software, Inc., CA, USA). For comparison between means of more than two groups one-way analysis of variance (ANOVA) followed by Dunnett's post-hoc analysis was employed.

Data set [5] in a line: Pharmacokinetic profile in female db/db mice. The format is in vivo. To be noted: for AUC(0-t) / Cmax / Tmax / half-life / AUC(0-inf): mouse, plasma; for AUC(0-inf): read-out: AUC 0-infinity. From the text: Similarly, troglitazone a PPAR-γ […] agonist increases glucose uptake by inducing GLUT4 translocation in L6 skeletal muscles ([Lessard et al. 2006]; [Yonemitsu et al. 2001]). However, these compounds are PPAR-γ agonists, and have several side-effects that cause increased body weight and hepaptoxicity on chronic exposure. […] Prior to planning an efficacy study we determined the pharmacokinetic profile of NFAT-133 (Figure 5, Table 4) using female db/db mice with n = 4 per time point. […] But, since the compound appeared to have a novel mechanism of action, we decided to explore its in vivo efficacy potential by attempting the intraperitoneal route of administration. NFAT-133 administered by the intraperitoneal route achieved plasma concentrations higher than the in vitro EC50 in skeletal muscles.
Figure 5 Pharmacokinetic data of NFAT-133 by oral (A) and intraperitoneal (B) absorption in female db/db mice at 30 mg/kg.

For data set [6], the system named is L6 rat skeletal muscle cells. In words: Glucose uptake (14C-2-deoxyglucose) in insulin-sensitized differentiated L6 myotubes. The note with it: for EC50: Rattus norvegicus, differentiated L6 myotubes in presence of insulin. In kind it is cell-based. The procedure:
The metabolite extract library samples were screened for the ability to induce glucose uptake in insulin stimulated differentiated L6 myotubes. The L6 rat skeletal muscle cells were seeded into 96 well cell culture plates in complete medium (α-MEM + 10% fetal bovine serum + 1% penicillin-streptomycin solution) and maintained at 5% carbon dioxide (CO2) atmosphere. After 48 h, the medium was switched to α-MEM with 2% (v/v) fetal bovine serum (FBS) in order to initiate differentiation. Media change was ensured every 48 h. Compound treatment was conducted once the myoblasts differentiated to form myotubes. The differentiated and fused myotubes were starved in serum free α-MEM for 4 h, treated with samples and further incubated for 24 h. Following treatment and incubation, the cells were sensitized with insulin (200 nM) and incubated for 25 minutes. Radioactive glucose pulsing was done at 0.06 μCi/ml for 10 minutes. The reaction was terminated with cold KRPH buffer. The cell-associated radioactivity was determined by lysing the cells with Microscint PS™ followed by liquid scintillation counting ([Huang et al. 2002]). The assay was performed in triplicate.
For all experiments, the L6 myoblasts obtained from ATCC were used only up to passage seven and were utilized within two months post revival of a new vial.

Setting [7] is: 100 mg/kg i.p. b.i.d. 10 days, P < 0.001 vs. vehicle.

Consider `CC(=O)C(C)C(O)C(C)c1ccc(C)cc1/C=C\CO` (stereo not shown) [NFAT-133], for which the “% hPPAR-γ activation” value in data set [1] (30 μM) worked out at 0.2%. The “% hPPAR-γ activation” value in data set [1] (100 μM) is 9.0%. In addition, the “PPAR-γ activity” value in data set [1] (concentrations as high as 100 μM) was “does not induce PPAR-γ activity”. Moreover, in data set [2], the proliferation of splenocytes entry is on record as “block proliferation”. In data set [3], the “activation of the transcription factor NFAT” value is given as “inhibit the activation”. In addition, in data set [4] (setting [7]), the “plasma glucose levels as compared to vehicle treated animals” value was “significant reduction” and the “plasma insulin levels as compared to vehicle treated animals” value is reported as “significant reduction”. The molecule further gave a liver weight in data set [4] (100 mg/kg ip b.i.d. 10 days) of 2.0 ± 0.1 g. The “% Change in body weight” value in data set [4] (100 mg/kg ip b.i.d. 10 days, Mean ± S.E.M., n = 10) was -1.08 ± 1.21% and -1.1 ± 1.2 %. The liver weight in data set [4] (100 mg/kg ip b.i.d. 10 days, Mean ± S.E.M., n = 10, the values are: liver weight) is 2 ± 0.1 g. In addition, in data set [5], the “oral bioavailability” value is on record as “poor oral bioavailability”. Besides, in data set [5] (30 mg/kg IP), the AUC(0-t) came out at 3220 ng·h/mL; the highest concentration (Cmax) was 11700 ng/mL and 42.2 µM; the Tmax is 4.8 min; the half-life is 112 min. Moreover, in data set [5] (30 mg/kg IP), the AUC(0-inf) turned out to be 3550 ng·h/mL. Also, in data set [5] (30 mg/kg oral), the AUC(0-t) worked out at 630 ng·h/mL; the maximum concentration (Cmax) is 3410 ng/mL and 12.3 µM; the Tmax is 4.8 min; the half-life was 9.6 min. Also, the AUC(0-inf) in data set [5] (30 mg/kg oral) turned out to be 650 ng·h/mL. In addition, in data set [6], the concentration for a half-maximal effect (EC50) came out at 6.3 ± 1.8 µM.

For the molecule `CN(CCOc1ccc(CC2SC(=O)NC2=O)cc1)c1ccccn1` (stereo not shown) [Rosiglitazone, rosiglitazone, reference compound], the liver weight in data set [4] (5 mg/kg po b.i.d. 10 days) turned out to be 2.7 ± 0.1 g; in data set [4] (5 mg/kg po b.i.d. 10 days, Mean ± S.E.M., n = 10, the values are: liver weight), 2.6 ± 0.1 g. Moreover, the “% Change in body weight” value in data set [4] (5 mg/kg po b.i.d. 10 days, Mean ± S.E.M., n = 10) is reported as 14.6 ± 0.8 %; in data set [4] (5 mg/kg po b.i.d. 10 days, Mean ± S.E.M., n = 10, listed as rosiglitazone), 14.63 ± 0.85%. Moreover, the “Inference (glucose uptake activity)” value in data set [6] (4 μg/ml) was “Active”. In addition, the concentration giving a half-maximal response (EC50) in data set [6] amounted to 6.9 ± 1.8 µM.
